Measurements as given in the supplement of paper PMC10307832.

Assays:
Experiment in all cases: relative viability (nuclei count vs DMSO), 5 days (fraction); higher = more cells survive
4EGI-1 + Alpelisib = compound: O=C(O)C(Cc1ccccc1[N+](=O)[O-])=NNc1nc(-c2ccc(Cl)c(Cl)c2)cs1 (mixture of isomers) [4EGI-1] + Cc1nc(NC(=O)N2CCC[C@H]2C(N)=O)sc1-c1ccnc(C(C)(C)C(F)(F)F)c1 [Alpelisib] (partner 2 µM)
Summary of the method: (§1)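 Lung cancer cell lines were pin-tool dosed in 1536-well plates on the day after seeding, with either a lone drug or a fixed anchor-drug dose plus five library-drug doses (not always all listed) in √10 steps. Nuclei were counted on 4× images after 5 days. Relative viability is the ratio of treated-well to vehicle-well nuclei counts, with each value a median of duplicate plates.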

4EGI-1 + OSI-027 = compound: O=C(O)C(Cc1ccccc1[N+](=O)[O-])=NNc1nc(-c2ccc(Cl)c(Cl)c2)cs1 (mixture of isomers) [4EGI-1] + COc1cccc2cc(-c3nc([C@H]4CC[C@H](C(=O)O)CC4)n4ncnc(N)c34)[nH]c12 [OSI-027] (partner 0.5 µM)
Summary of the method: as §1

4EGI-1 + Vorinostat = compound: O=C(O)C(Cc1ccccc1[N+](=O)[O-])=NNc1nc(-c2ccc(Cl)c(Cl)c2)cs1 (mixture of isomers) [4EGI-1] + O=C(CCCCCCC(=O)Nc1ccccc1)NO [Vorinostat] (partner 1 µM)
Summary of the method: as §1

4EGI-1 + Linsitinib = compound: O=C(O)C(Cc1ccccc1[N+](=O)[O-])=NNc1nc(-c2ccc(Cl)c(Cl)c2)cs1 (mixture of isomers) [4EGI-1] + C[C@]1(O)C[C@@H](c2nc(-c3ccc4ccc(-c5ccccc5)nc4c3)c3c(N)nccn32)C1 [Linsitinib] (partner 1 µM)
Summary of the method: as §1

Row | Cell Line | relative viability (4EGI-1 + Alpelisib; first compound 0.5 µM) | relative viability (4EGI-1 + Alpelisib; first compound 1.581 µM) | relative viability (4EGI-1 + Alpelisib; first compound 5 µM) | relative viability (4EGI-1 + Alpelisib; first compound 15.81 µM) | relative viability (4EGI-1 + Alpelisib; first compound 50 µM) | relative viability (4EGI-1 + OSI-027; first compound 0.5 µM) | relative viability (4EGI-1 + OSI-027; first compound 1.581 µM) | relative viability (4EGI-1 + OSI-027; first compound 5 µM) | relative viability (4EGI-1 + OSI-027; first compound 15.81 µM) | relative viability (4EGI-1 + OSI-027; first compound 50 µM) | relative viability (4EGI-1 + Vorinostat; first compound 0.5 µM) | relative viability (4EGI-1 + Vorinostat; first compound 1.581 µM) | relative viability (4EGI-1 + Vorinostat; first compound 5 µM) | relative viability (4EGI-1 + Vorinostat; first compound 15.81 µM) | relative viability (4EGI-1 + Vorinostat; first compound 50 µM) | relative viability (4EGI-1 + Linsitinib; first compound 0.5 µM) | relative viability (4EGI-1 + Linsitinib; first compound 1.581 µM) | relative viability (4EGI-1 + Linsitinib; first compound 5 µM) | relative viability (4EGI-1 + Linsitinib; first compound 15.81 µM) | relative viability (4EGI-1 + Linsitinib; first compound 50 µM)
1 | EKVX | 1.12 | 0.85 | 0.971 | 0.648 | 0.826 | 0.736 | 0.594 | 0.738 | 0.567 | 0.696 | 0.852 | 0.746 | 0.759 | 0.309 | 0.203 | 1.12 | 0.859 | 0.964 | 0.755 | 0.882
2 | EMC-BAC-2 | 0.733 | 0.628 | 0.72 | 0.485 | 0.656 | 0.39 | 0.342 | 0.4 | 0.374 | 0.327 | 0.472 | – | 0.634 | 0.318 | 0.168 | 0.86 | 0.748 | 0.791 | 0.777 | 0.736
3 | EPLC-272H | 0.98 | 0.868 | 0.905 | 0.911 | 0.873 | 0.317 | – | 0.285 | 0.274 | 0.172 | 0.563 | 0.493 | 0.337 | 0.295 | 0.12 | 1.31 | 0.938 | 1.19 | 1.21 | 1.24
4 | H3255 | 0.861 | 0.641 | 0.756 | 0.473 | 0.561 | 0.655 | 0.564 | 0.611 | 0.448 | 0.578 | 0.792 | – | 0.77 | – | 0.735 | 1.09 | 0.697 | 0.994 | 0.584 | 0.857
5 | HARA | 0.935 | 0.921 | 0.837 | 0.833 | 0.295 | 0.651 | 0.517 | 0.648 | 0.453 | 0.154 | 0.545 | 0.429 | 0.525 | 0.47 | 0.127 | 0.982 | 0.955 | 1.05 | 0.973 | 0.209
6 | HCC-15 | 0.923 | 0.886 | 0.968 | 0.809 | 0.519 | 0.692 | – | 0.734 | 0.557 | 0.19 | 0.863 | 0.812 | 0.809 | 0.686 | 0.513 | 0.884 | 0.836 | 0.865 | 0.728 | 0.432
7 | HCC-44 | 0.86 | 0.485 | 0.79 | 0.532 | 0.182 | 0.483 | – | 0.41 | 0.404 | 0.175 | 1.06 | 0.872 | 0.988 | 0.916 | 0.566 | 0.708 | 0.361 | 0.681 | 0.585 | 0.406
8 | HCC-78 | 0.439 | 0.315 | 0.319 | 0.32 | 0.218 | 0.356 | – | 0.38 | 0.34 | 0.362 | 0.579 | – | 0.435 | 0.443 | 0.451 | 0.612 | 0.373 | 0.453 | 0.484 | 0.479
9 | HCC-366 | 0.642 | 0.364 | 0.399 | 0.5 | 0.331 | 0.922 | 0.742 | 1.13 | 0.669 | 0.277 | 0.469 | 0.149 | 0.431 | 0.34 | 0.0704 | 0.791 | 0.697 | 0.741 | 0.772 | 0.382
10 | HCC-827 | 1.07 | 0.957 | 0.897 | – | 0.85 | 0.888 | 0.629 | 0.796 | – | 0.719 | 0.785 | 0.698 | 0.902 | – | 0.274 | 0.969 | 0.866 | 0.905 | – | 0.878
11 | HOP-62 | 1.13 | – | 1.12 | 1.13 | 0.745 | 0.878 | 0.585 | 0.839 | 0.746 | 0.483 | 0.65 | 0.346 | 0.715 | 0.616 | 0.104 | 1.19 | – | 1.16 | 1.03 | 0.707
12 | LC-2-ad | 0.865 | 0.758 | 0.858 | 0.822 | 0.137 | 0.873 | – | 0.894 | 0.386 | 0.234 | 0.736 | 0.62 | 0.617 | 0.356 | 0.207 | 0.897 | 0.764 | 0.83 | 0.432 | 0.13
13 | LCLC-97TM1 | 0.213 | – | 0.239 | 0.236 | 0.211 | 0.464 | 0.258 | 0.527 | 0.482 | 0.478 | 0.78 | – | 0.856 | 0.843 | 0.0947 | 0.161 | – | 0.203 | 0.198 | 0.165
14 | LCLC-103H | 1.01 | 0.866 | 0.866 | 0.879 | 0.879 | 0.479 | 0.469 | 0.482 | 0.471 | 0.333 | 0.619 | 0.75 | 0.851 | 0.746 | 0.282 | 1.09 | 0.994 | 0.955 | 1.03 | 0.887
15 | LK-2 | 1.22 | – | 1.12 | 1.21 | 0.897 | 0.196 | – | 0.201 | 0.182 | 0.178 | 0.314 | 0.174 | 0.337 | 0.354 | 0.236 | 0.587 | 0.357 | 0.777 | 0.604 | 0.549
16 | LOU-NH91 | 0.814 | – | 0.726 | 0.466 | 0.538 | 0.737 | – | 0.752 | 0.432 | 0.675 | 0.993 | – | 0.964 | 0.782 | 0.529 | 1.11 | – | 0.97 | 0.543 | 0.665
17 | LU99A | 0.613 | – | 0.538 | 0.539 | 0.171 | 0.306 | 0.275 | 0.269 | 0.274 | 0.288 | 0.514 | 0.421 | 0.44 | 0.528 | 0.261 | 0.593 | – | 0.651 | 0.524 | 0.401
18 | LXF-289 | 1.17 | 1.01 | 1.04 | 0.89 | 0.516 | 0.825 | 0.809 | 0.758 | 0.756 | 0.519 | 0.79 | 0.718 | 0.787 | 0.802 | 0.672 | 0.984 | 0.96 | 0.921 | 0.935 | 0.673
19 | NCI-H23 | 0.905 | – | 0.915 | 0.794 | 0.611 | 0.612 | – | 0.614 | 0.453 | 0.417 | 0.779 | – | 0.612 | 0.58 | 0.165 | 0.718 | – | 0.704 | 0.629 | 0.496
20 | NCI-H322M | 0.778 | 0.895 | 0.771 | 0.722 | 0.809 | 0.63 | – | 0.546 | 0.532 | 0.223 | 0.998 | – | 1.05 | 0.8 | 0.482 | 0.885 | 0.929 | 0.947 | 0.798 | 0.891
21 | NCI-H358 | 0.966 | 0.817 | 0.96 | 0.653 | 0.175 | 0.778 | 0.624 | 1.08 | 0.391 | 0.106 | 0.609 | 0.613 | 0.663 | 0.319 | 0.0967 | 0.882 | 0.689 | 0.889 | 0.69 | 0.208
22 | NCI-H441 | 0.787 | 0.758 | 0.656 | 0.743 | 0.301 | 0.812 | 0.488 | 0.653 | 0.478 | 0.333 | 0.727 | 0.909 | 0.75 | 0.641 | 0.414 | 0.77 | 0.492 | 0.798 | 0.469 | 0.196
23 | NCI-H460 | 0.511 | – | 0.493 | 0.197 | 0.0546 | 0.684 | – | 0.668 | 0.3 | 0.0347 | 0.713 | 0.353 | 0.714 | 0.436 | 0.0364 | 0.777 | – | 1.07 | 0.182 | 0.0218
24 | NCI-H520 | 0.918 | 0.754 | 1.02 | 0.866 | 0.543 | 0.262 | 0.325 | 0.314 | 0.345 | 0.179 | 0.877 | 0.73 | 0.887 | 0.773 | 0.153 | 1.19 | 0.984 | 1.01 | 0.75 | 0.558
25 | NCI-H596 | 0.576 | 0.524 | 0.508 | 0.574 | 0.461 | 0.844 | 0.579 | 0.905 | 0.62 | 0.518 | 0.648 | 0.495 | 0.6 | 0.475 | 0.375 | 1.06 | 0.818 | 1.09 | 1.02 | 0.815
26 | NCI-H647 | 1.16 | 1.17 | 1.41 | 0.647 | 0.108 | 0.7 | – | 0.739 | 0.671 | 0.399 | 0.837 | 0.53 | 0.689 | 0.477 | 0.0731 | 1.17 | 1.12 | 1.22 | 1.07 | 0.202
27 | NCI-H650 | 1.15 | – | 1.25 | 1.15 | 0.92 | 0.6 | – | 0.565 | 0.5 | 0.443 | 0.528 | – | 0.472 | 0.488 | 0.296 | 0.996 | – | 1.24 | 0.915 | 0.732
28 | NCI-H661 | 0.82 | 0.446 | 1.26 | 0.535 | 0.229 | 0.713 | 0.583 | 0.649 | 0.383 | 0.245 | 0.856 | 0.702 | 0.789 | 0.681 | 0.353 | 0.723 | 0.502 | 0.624 | 0.394 | 0.309
